# Data from US8609690B2, “Aryl- and heteroarylcarbonyl derivatives of substituted nortropanes, medicaments containing such compounds and their use” (Boehringer Ingelheim International GmbH, priority 2008, dated 2013).
# Target: T1, 11β-HSD 1 (Homo sapiens, UniProt P28845)
# T1 construct: detecting cortisol generated from cortisterone by human liver microsomes; from tissue; host or cells: human liver microsomes
# Assay: In vitro inhibition of 11β-HSD 1, HTRF detection of cortisol generated by human liver microsomes
# Format: biochemical
# Details: 1 μM test compound, 100% indicates no inhibition, zero or below zero indicates complete inhibition (relative to carbenoxolone)
# Procedure: Briefly, compounds were incubated for 1 hour at 37° C. in Tris buffer (20 mM tris, 5 mM EDTA, pH 6.0) containing NADPH (200 μM) and cortisone (80 nM). Cortisol generated in the reaction is then detected with a competitive immunoassay, involving two HTRF conjugates: cortisol linked to XL665 and anti-cortisol antibody labeled with Europium cryptate. The incubation period for detection reaction was typically 2 hours. The amount of cortisol is determined by reading the time-resolved fluorescence of the wells (Ex 320/75 nm; Em 615/8.5 nm and 665/7.5 nm). The ratio of the two emission signals is then calculated (Em665*10000/Em615). […] Each assay also contained a calibration curve with cortisol to transform the fluorescent data into cortisol concentrations. Percent inhibition of each compound was determined relative to the carbenoxolone signal. In Table 2 the 11β-HSD 1 inhibitory activities at 1 μM concentration of test compound, determined as described above, of the compounds listed in Table 3 are compiled, wherein 100% indicates no inhibition and a value of zero or below zero indicates complete inhibition.
# T1 sequence (P28845 whole entry): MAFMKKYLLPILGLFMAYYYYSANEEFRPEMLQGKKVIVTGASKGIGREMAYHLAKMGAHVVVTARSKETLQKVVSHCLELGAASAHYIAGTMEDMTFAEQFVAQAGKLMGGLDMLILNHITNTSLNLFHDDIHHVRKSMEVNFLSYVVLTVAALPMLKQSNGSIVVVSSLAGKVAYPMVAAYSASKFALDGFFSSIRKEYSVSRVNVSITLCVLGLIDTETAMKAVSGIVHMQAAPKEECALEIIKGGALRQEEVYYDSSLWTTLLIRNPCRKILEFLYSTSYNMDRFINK
row,Compound,"Inhibitory activity on 11β-HSD 1, % CTL"
1,"Cc1ccc(C(=O)N2[C@@H]3CC[C@H]2C[C@@H](c2ccc(F)cc2)C3)c(C)c1 [Example 122, endo-(2,4-Dimethyl-phenyl)-[3-(4-fluoro-phenyl)-8-aza-bicyclo[3.2.1]oct-8-yl]-methanone]",63 % CTL
2,"O=C(c1ccc(O)cc1)N1[C@@H]2CC[C@H]1C[C@@H](c1ccc(F)cc1)C2 [Example 130, endo-[3-(4-Fluoro-phenyl)-8-aza-bicyclo[3.2.1]oct-8-yl]-(4-hydroxy-phenyl)-methanone]",−47 % CTL
3,"CCn1ccc2ccc(C(=O)N3[C@@H]4CC[C@H]3C[C@@H](c3ccc(F)cc3)C4)cc21 [Example 51, endo-(1-Ethyl-1H-indol-6-yl)-[3-(4-fluoro-phenyl)-8-aza-bicyclo[3.2.1]oct-8-yl]-methanone]",41 % CTL
4,"O=C(c1ccc(O)c(C(F)(F)F)c1)N1[C@@H]2CC[C@H]1C[C@@H](c1ccc(F)cc1)C2 [Example 174, endo-[3-(4-Fluoro-phenyl)-8-aza-bicyclo[3.2.1]oct-8-yl]-(4-hydroxy-3-trifluoromethyl-phenyl)-methanone]",−40 % CTL
5,"Cn1c(=O)[nH]c2cc(C(=O)N3[C@@H]4CC[C@H]3C[C@@H](c3ccc(F)cc3)C4)ccc21 [Example 59, endo-5-[3-(4-Fluoro-phenyl)-8-aza-bicyclo[3.2.1]octane-8-carbonyl]-1-methyl-1,3-dihydro-benzoimidazol-2-one]",95 % CTL
6,"O=C(c1cccc(F)c1)N1[C@@H]2CC[C@H]1C[C@@H](c1ccc(F)cc1)C2 [Example 104, endo-(3-Fluoro-phenyl)-[3-(4-fluoro-phenyl)-8-aza-bicyclo[3.2.1]oct-8-yl]-methanone]",43 % CTL
7,"Cc1cc(C(F)F)n2nc(C(=O)N3[C@@H]4CC[C@H]3C[C@@H](c3ccc(F)cc3)C4)nc2n1 [Example 162, endo-(7-Difluoromethyl-5-methyl-[1,2,4]triazolo[1,5-a]pyrimidin-2-yl)-[3-(4-fluoro-phenyl)-8-aza-bicyclo[3.2.1]oct-8-yl]-methanone]",96 % CTL
8,"COc1cccc([C@H]2C[C@H]3CC[C@@H](C2)N3C(=O)c2ccc3c(c2)OCCO3)c1 [Example 139, endo-(2,3-Dihydro-benzo[1,4]dioxin-6-yl)-[3-(3-methoxy-phenyl)-8-aza-bicyclo[3.2.1]oct-8-yl]-methanone]",21 % CTL
9,"O=C(c1ccc2c(c1)OCCO2)N1[C@@H]2CC[C@H]1C[C@@H](c1ccc(F)cc1F)C2 [Example 160, endo-[3-(2,4-Difluoro-phenyl)-8-aza-bicyclo[3.2.1]oct-8-yl]-(2,3-dihydro-benzo[1,4]dioxin-6-yl)-methanone]",−26 % CTL
10,"O=C(c1ccc2c(c1)OCCO2)N1[C@@H]2CC[C@H]1C[C@@H](c1cccc(O)c1)C2 [Example 141, endo-(2,3-Dihydro-benzo[1,4]dioxin-6-yl)-[3-(3-hydroxy-phenyl)-8-aza-bicyclo[3.2.1]oct-8-yl]-methanone]",29 % CTL
11,"N#Cc1cccc(C(=O)N2[C@@H]3CC[C@H]2C[C@@H](c2ccc(F)cc2)C3)c1 [Example 106, endo-3-[3-(4-Fluoro-phenyl)-8-aza-bicyclo[3.2.1]octane-8-carbonyl]-benzonitrile]",75 % CTL
12,"O=C(c1ccccc1F)N1[C@@H]2CC[C@H]1C[C@@H](c1ccc(F)cc1)C2 [Example 57, endo-(2-Fluoro-phenyl)-[3-(4-fluoro-phenyl)-8-aza-bicyclo[3.2.1]oct-8-yl]-methanone]",63 % CTL
13,"O=C1Cc2cc(C(=O)N3[C@@H]4CC[C@H]3C[C@@H](c3ccc(F)cc3)C4)ccc2N1 [Example 47, endo-5-[3-(4-Fluoro-phenyl)-8-aza-bicyclo[3.2.1]octane-8-carbonyl]-1,3-dihydro-indol-2-one]",−17 % CTL
14,"CC(C)(C)Oc1cccc(C(=O)N2[C@@H]3CC[C@H]2C[C@@H](c2ccc(F)cc2)C3)c1 [Example 45, endo-(3-tert-Butoxy-phenyl)-[3-(4-fluoro-phenyl)-8-aza-bicyclo[3.2.1]oct-8-yl]-methanone]",82 % CTL
15,"Nc1nc2cc(C(=O)N3[C@@H]4CC[C@H]3C[C@@H](c3ccc(F)cc3)C4)ccc2[nH]1 [Example 48, endo-(2-Amino-1H-benzoimidazol-5-yl)-[3-(4-fluoro-phenyl)-8-aza-bicyclo[3.2.1]oct-8-yl]-methanone]",1 % CTL
16,"O=C(c1ccc(O)c(F)c1)N1[C@@H]2CC[C@H]1C[C@@H](c1ccc(F)cc1)C2 [Example 169, endo-(3-Fluoro-4-hydroxy-phenyl)-[3-(4-fluoro-phenyl)-8-aza-bicyclo[3.2.1]oct-8-yl]-methanone]",−25 % CTL
17,"COc1cc(C(=O)N2[C@@H]3CC[C@H]2C[C@@H](c2ccc(F)cc2)C3)cc(OC)c1OC [Example 44, endo-[3-(4-Fluoro-phenyl)-8-aza-bicyclo[3.2.1]oct-8-yl]-(3,4,5-trimethoxy-phenyl)-methanone]",57 % CTL
18,"NCc1cccc([C@@H]2C[C@H]3CC[C@@H](C2)N3C(=O)c2ccc3c(c2)OCCO3)c1 [Example 147, exo-[3-(3-Aminomethyl-phenyl)-8-aza-bicyclo[3.2.1]oct-8-yl]-(2,3-dihydro-benzo[1,4]dioxin-6-yl)-methanone]",99 % CTL
19,"Cc1ccc(C(=O)N2[C@@H]3CC[C@H]2C[C@@H](c2ccc(F)cc2)C3)cc1C [Example 107, endo-(3,4-Dimethyl-phenyl)-[3-(4-fluoro-phenyl)-8-aza-bicyclo[3.2.1]oct-8-yl]-methanone]",−38 % CTL
20,"O=C(c1cccc(N2CCCCS2(=O)=O)c1)N1C2CCC1CC(c1ccc(F)cc1)C2 (stereo not drawn) [Example 40, endo-[3-(1,1-Dioxo-1lambda*6*-[1,2]thiazinan-2-yl)-phenyl-[3-(4-fluoro-phenyl)-8-aza-bicyclo[3.2.1]oct-8-yl]-methanone]",98 % CTL
21,"O=C(c1ccc2c(c1)OCCO2)N1[C@@H]2CC[C@H]1C[C@@H](c1ccc(Oc3ccccc3)cc1)C2 [Example 152, endo-(2,3-Dihydro-benzo[1 ,4]dioxin-6-yl)-[3-(4-phenoxy-phenyl)-8-aza-bicyclo[3.2.1]oct-8-yl]-methanone]",5 % CTL
22,"O=C(c1ccc2c(c1)OCCO2)N1[C@@H]2CC[C@H]1C[C@@H](c1c(F)cccc1F)C2 [Example 161, endo-[3-(2,6-Difluoro-phenyl)-8-aza-bicyclo[3.2.1]oct-8-yl]-(2,3-dihydro-benzo[1,4]dioxin-6-yl)-methanone]",−30 % CTL
23,"CC(=O)c1ccccc1C(=O)N1[C@@H]2CC[C@H]1C[C@@H](c1ccc(F)cc1)C2 [Example 126, endo-1-{2-[3-(4-Fluoro-phenyl)-8-aza-bicyclo[3.2.1]octane-8-carbonyl]-phenyl}-ethanone]",63 % CTL
24,"CCn1ncc(C(=O)N2[C@@H]3CC[C@H]2C[C@@H](c2ccc(C)cc2)C3)c1C [Example 38, endo-(1-Ethyl-5-methyl-1H-pyrazol-4-yl)-(3-p-tolyl-8-aza-bicyclo[3.2.1]oct-8-yl)-methanone]",12 % CTL
25,"O=C(c1cc(Cl)c(O)c(Cl)c1)N1[C@@H]2CC[C@H]1C[C@@H](c1ccc(F)cc1)C2 [Example 163, endo-(3,5-Dichloro-4-hydroxy-phenyl)-[3-(4-fluoro-phenyl)-8-aza-bicyclo[3.2.1]oct-8-yl]-methanone]",−7 % CTL
26,"O=C(c1cc(F)c(O)c(F)c1)N1[C@@H]2CC[C@H]1C[C@@H](c1ccc(F)cc1)C2 [Example 172, endo-(3,5-Difluoro-4-hydroxy-phenyl)-[3-(4-fluoro-phenyl)-8-aza-bicyclo[3.2.1]oct-8-yl]-methanone]",0 % CTL
27,"O=C(c1ccc2c(c1)OCCO2)N1[C@@H]2CC[C@H]1C[C@@H](c1ccccc1O)C2 [Example 159, endo-(2,3-Dihydro-benzo[1,4]dioxin-6-yl)-[3-(2-hydroxy-phenyl)-8-aza-bicyclo[3.2.1]oct-8-yl]-methanone]",−55 % CTL
28,"O=C(c1ccc2c(c1)OCO2)N1[C@@H]2CC[C@H]1C[C@@H](c1ccc(F)cc1)C2 [Example 114, endo-Benzo[1,3]dioxol-5-yl-[3-(4-fluoro-phenyl)-8-aza-bicyclo[3.2.1]oct-8-yl]-methanone]",−10 % CTL

# Same assay, conditions: 1 μM test compound, 100% indicates no inhibition, zero or below zero indicates complete inhibition (relative to carbenoxolone), 1 µM
row,Compound,"Inhibitory activity on 11β-HSD 1, % CTL"
1,"NC(=O)c1ccc(C(=O)N2[C@@H]3CC[C@H]2C[C@@H](c2ccc(F)cc2)C3)cc1 [Example 2, endo-4-[3-(4-Fluoro-phenyl)-8-aza-bicyclo[3.2.1]octane-8-carbonyl]-benzamide]",−27 % CTL
